Test results taken from ChEMBL document CHEMBL5291721, “A preclinical secondary pharmacology resource illuminates target-adverse drug reaction associations of marketed drugs” (Nat Commun, 2023).

Assays:
[1] = target: T1, Muscarinic acetylcholine receptor M2 (Homo sapiens, UniProt P08172)
T1 sequence (P08172 whole entry): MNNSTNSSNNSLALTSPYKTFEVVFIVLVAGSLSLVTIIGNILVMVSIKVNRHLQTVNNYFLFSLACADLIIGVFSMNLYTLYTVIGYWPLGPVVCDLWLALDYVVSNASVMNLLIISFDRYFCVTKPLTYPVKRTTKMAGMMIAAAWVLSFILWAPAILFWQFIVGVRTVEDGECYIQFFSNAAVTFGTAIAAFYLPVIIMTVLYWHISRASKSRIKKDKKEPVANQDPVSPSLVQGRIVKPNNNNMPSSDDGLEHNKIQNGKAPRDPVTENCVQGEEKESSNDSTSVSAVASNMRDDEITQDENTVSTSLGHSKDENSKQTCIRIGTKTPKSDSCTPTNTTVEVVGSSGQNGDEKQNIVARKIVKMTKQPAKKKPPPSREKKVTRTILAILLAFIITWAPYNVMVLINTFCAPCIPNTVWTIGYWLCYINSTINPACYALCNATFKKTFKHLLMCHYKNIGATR

[2] = target: 5-hydroxytryptamine receptor 2B (Homo sapiens, UniProt P41595); assay type: functional, cell-based
Sequence of 5-hydroxytryptamine receptor 2B (P41595 whole entry): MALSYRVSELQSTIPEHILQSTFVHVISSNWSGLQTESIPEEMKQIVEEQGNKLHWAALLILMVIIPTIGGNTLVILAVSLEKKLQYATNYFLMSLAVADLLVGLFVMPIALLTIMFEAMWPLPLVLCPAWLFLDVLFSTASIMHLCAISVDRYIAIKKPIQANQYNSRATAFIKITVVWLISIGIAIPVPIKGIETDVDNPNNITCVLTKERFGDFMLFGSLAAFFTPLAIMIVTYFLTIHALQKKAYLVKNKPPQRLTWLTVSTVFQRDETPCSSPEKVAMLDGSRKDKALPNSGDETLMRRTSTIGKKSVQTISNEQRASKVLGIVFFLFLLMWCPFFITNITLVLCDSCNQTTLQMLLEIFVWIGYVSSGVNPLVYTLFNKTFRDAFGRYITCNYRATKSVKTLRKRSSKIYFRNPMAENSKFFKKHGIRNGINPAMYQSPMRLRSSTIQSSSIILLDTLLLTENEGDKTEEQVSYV

[3] = target: T2, Alpha-2A adrenergic receptor (Homo sapiens, UniProt P08913)
T2 sequence (P08913 whole entry): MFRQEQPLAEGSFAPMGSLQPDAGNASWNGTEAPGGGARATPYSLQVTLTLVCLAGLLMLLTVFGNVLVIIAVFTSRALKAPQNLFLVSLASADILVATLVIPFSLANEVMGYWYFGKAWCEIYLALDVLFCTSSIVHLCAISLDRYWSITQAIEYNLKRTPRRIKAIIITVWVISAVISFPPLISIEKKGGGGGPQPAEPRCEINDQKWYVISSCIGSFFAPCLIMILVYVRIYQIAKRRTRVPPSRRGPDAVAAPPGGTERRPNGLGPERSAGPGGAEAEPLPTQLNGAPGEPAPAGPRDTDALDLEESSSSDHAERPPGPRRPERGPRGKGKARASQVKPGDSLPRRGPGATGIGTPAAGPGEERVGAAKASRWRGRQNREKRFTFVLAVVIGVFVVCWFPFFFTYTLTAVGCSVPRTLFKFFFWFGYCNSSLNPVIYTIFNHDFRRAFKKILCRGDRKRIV

Acetylcholinesterase = Acetylcholinesterase (Homo sapiens, UniProt P22303); assay type: functional
Sequence of Acetylcholinesterase (P22303 whole entry): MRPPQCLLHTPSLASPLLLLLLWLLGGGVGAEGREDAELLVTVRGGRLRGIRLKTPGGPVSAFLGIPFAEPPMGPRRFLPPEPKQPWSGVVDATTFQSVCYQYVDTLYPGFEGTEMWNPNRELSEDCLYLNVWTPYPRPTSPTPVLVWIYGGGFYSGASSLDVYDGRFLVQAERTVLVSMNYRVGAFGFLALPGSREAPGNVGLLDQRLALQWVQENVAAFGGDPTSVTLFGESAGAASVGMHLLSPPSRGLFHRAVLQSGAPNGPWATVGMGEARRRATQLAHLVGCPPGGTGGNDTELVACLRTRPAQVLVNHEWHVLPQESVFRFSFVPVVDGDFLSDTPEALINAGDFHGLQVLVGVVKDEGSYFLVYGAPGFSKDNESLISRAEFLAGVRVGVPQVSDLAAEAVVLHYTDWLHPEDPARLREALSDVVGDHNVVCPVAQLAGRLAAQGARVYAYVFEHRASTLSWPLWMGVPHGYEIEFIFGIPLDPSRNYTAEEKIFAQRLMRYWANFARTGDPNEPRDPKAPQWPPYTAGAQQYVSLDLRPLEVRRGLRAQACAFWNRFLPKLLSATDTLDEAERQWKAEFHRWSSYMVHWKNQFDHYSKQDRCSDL

Thromboxane A2 receptor [4] = target: T3, Thromboxane A2 receptor (Homo sapiens, UniProt P21731); assay type: functional, cell-based
T3 sequence (P21731 whole entry): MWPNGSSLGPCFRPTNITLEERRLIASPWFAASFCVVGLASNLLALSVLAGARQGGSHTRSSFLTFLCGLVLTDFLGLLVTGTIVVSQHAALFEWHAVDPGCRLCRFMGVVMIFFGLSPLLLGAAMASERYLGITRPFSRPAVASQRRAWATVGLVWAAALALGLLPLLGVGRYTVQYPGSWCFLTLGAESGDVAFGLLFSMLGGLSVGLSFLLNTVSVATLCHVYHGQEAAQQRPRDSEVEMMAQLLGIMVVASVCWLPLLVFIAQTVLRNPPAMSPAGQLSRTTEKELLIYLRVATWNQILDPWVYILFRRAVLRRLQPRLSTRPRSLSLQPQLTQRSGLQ

Histamine H3 receptor = Histamine H3 receptor (Homo sapiens, UniProt Q9Y5N1)
Sequence of Histamine H3 receptor (Q9Y5N1 whole entry): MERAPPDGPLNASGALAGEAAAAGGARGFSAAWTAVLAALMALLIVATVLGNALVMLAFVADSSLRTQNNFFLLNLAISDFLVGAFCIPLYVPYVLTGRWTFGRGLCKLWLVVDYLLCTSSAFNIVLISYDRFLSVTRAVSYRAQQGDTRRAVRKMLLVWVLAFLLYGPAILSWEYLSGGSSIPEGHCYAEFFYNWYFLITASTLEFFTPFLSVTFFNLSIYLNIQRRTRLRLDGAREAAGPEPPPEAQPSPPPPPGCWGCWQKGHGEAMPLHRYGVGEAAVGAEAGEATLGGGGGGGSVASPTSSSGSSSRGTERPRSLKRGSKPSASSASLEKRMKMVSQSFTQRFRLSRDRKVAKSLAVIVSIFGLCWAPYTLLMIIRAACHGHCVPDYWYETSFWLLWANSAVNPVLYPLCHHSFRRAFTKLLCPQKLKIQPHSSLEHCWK

[5] = target: cGMP-inhibited 3',5'-cyclic phosphodiesterase 3A (Homo sapiens, UniProt Q14432); assay type: functional
Sequence of cGMP-inhibited 3',5'-cyclic phosphodiesterase 3A (Q14432 whole entry): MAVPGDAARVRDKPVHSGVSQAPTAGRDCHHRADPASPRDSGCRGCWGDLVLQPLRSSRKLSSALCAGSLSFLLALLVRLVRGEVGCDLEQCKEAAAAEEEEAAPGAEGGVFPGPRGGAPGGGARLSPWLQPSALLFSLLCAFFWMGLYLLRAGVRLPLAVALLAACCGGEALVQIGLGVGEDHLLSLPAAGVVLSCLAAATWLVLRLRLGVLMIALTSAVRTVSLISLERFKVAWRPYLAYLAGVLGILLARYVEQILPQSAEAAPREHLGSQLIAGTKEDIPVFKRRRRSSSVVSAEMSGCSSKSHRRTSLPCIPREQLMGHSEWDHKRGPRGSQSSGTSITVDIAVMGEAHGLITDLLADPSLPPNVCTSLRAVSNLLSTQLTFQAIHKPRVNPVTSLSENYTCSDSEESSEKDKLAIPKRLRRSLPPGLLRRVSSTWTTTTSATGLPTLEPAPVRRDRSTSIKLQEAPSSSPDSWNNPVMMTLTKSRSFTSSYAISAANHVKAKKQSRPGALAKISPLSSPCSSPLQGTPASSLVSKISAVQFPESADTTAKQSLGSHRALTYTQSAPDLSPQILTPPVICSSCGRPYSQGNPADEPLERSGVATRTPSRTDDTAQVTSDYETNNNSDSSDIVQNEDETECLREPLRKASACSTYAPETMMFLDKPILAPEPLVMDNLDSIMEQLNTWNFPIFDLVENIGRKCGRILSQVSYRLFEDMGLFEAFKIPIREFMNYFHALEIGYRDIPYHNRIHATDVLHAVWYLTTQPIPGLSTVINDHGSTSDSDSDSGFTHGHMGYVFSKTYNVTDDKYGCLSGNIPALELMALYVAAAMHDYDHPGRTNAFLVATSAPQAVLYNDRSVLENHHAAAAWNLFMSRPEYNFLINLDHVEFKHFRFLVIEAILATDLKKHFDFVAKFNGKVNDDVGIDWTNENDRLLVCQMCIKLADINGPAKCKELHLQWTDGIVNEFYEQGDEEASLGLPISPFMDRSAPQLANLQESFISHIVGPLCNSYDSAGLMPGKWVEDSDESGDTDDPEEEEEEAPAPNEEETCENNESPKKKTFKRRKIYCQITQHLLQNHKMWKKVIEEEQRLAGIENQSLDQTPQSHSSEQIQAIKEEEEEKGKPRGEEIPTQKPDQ

[6] = target: T4, Amine oxidase [flavin-containing] A (Homo sapiens, UniProt P21397); assay type: functional
T4 sequence (P21397 whole entry): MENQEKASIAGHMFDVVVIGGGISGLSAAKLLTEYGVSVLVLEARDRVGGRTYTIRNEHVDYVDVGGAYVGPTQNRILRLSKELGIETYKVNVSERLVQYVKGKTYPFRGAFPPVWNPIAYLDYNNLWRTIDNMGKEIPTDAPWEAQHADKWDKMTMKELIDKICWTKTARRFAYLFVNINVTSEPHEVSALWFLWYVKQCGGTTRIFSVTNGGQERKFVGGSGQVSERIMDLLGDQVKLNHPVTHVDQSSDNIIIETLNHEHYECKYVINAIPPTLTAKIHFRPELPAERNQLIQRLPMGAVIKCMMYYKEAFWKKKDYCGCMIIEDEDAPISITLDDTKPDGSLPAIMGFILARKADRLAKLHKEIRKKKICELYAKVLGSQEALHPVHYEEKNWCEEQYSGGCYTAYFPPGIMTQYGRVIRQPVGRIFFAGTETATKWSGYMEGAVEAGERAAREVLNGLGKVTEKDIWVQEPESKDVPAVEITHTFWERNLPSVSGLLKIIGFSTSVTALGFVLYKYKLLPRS

Thromboxane A2 receptor [7] = target: T3, Thromboxane A2 receptor; assay type: functional, cell-based; remark: listed apart in the source
Prothrombin = Prothrombin (Homo sapiens, UniProt P00734); assay type: functional
[8] = target: 3',5'-cyclic-AMP phosphodiesterase 4A (Homo sapiens, UniProt P27815); assay type: functional
[9] = target: Voltage-gated inwardly rectifying potassium channel KCNH2 (Homo sapiens, UniProt Q12809); assay type: functional
Sequence of Voltage-gated inwardly rectifying potassium channel KCNH2 (Q12809 whole entry): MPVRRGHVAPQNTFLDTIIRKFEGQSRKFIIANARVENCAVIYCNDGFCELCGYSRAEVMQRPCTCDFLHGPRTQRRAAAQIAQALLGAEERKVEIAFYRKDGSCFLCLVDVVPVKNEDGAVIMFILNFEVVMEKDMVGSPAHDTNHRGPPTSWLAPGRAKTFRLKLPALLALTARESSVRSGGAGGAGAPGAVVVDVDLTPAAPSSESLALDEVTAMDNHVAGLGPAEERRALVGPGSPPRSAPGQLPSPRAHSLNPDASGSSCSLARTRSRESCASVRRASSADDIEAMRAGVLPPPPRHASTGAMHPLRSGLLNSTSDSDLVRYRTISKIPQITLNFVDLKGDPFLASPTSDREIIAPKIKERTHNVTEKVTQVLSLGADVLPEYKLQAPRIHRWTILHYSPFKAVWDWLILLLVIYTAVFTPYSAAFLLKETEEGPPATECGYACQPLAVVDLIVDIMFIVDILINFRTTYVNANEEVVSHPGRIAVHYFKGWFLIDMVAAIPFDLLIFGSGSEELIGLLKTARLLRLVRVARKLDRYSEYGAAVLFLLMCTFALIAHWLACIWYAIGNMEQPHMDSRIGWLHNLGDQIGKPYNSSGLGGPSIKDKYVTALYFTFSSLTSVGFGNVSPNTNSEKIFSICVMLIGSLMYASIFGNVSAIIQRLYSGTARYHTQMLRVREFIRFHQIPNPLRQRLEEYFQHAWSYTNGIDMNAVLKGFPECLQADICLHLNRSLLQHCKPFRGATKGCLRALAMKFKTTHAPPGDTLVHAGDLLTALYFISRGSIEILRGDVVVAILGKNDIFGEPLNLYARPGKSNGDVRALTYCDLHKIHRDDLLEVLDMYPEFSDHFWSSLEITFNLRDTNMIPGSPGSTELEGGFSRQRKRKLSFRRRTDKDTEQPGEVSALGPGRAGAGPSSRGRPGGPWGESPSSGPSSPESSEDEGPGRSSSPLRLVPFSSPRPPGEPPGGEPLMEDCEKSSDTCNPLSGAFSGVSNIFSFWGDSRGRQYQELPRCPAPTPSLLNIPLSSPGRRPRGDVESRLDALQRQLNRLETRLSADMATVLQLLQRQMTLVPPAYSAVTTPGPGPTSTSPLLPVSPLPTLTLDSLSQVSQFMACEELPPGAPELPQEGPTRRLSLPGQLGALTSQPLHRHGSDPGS

[10] = target: T5, 5-hydroxytryptamine receptor 1A (Homo sapiens, UniProt P08908)
T5 sequence (P08908 whole entry): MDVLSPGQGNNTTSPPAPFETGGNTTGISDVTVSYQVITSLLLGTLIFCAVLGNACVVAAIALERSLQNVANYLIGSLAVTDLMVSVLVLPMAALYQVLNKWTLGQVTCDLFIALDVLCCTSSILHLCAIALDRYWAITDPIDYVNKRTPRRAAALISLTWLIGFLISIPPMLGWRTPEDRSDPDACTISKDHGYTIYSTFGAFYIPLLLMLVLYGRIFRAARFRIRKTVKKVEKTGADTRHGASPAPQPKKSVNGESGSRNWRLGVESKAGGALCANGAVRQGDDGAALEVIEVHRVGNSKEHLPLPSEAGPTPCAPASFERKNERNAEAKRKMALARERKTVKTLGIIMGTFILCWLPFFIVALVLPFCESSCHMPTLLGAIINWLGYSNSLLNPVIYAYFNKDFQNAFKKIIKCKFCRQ

[11] = target: Sodium-dependent dopamine transporter (Homo sapiens, UniProt Q01959)
Sequence of Sodium-dependent dopamine transporter (Q01959 whole entry): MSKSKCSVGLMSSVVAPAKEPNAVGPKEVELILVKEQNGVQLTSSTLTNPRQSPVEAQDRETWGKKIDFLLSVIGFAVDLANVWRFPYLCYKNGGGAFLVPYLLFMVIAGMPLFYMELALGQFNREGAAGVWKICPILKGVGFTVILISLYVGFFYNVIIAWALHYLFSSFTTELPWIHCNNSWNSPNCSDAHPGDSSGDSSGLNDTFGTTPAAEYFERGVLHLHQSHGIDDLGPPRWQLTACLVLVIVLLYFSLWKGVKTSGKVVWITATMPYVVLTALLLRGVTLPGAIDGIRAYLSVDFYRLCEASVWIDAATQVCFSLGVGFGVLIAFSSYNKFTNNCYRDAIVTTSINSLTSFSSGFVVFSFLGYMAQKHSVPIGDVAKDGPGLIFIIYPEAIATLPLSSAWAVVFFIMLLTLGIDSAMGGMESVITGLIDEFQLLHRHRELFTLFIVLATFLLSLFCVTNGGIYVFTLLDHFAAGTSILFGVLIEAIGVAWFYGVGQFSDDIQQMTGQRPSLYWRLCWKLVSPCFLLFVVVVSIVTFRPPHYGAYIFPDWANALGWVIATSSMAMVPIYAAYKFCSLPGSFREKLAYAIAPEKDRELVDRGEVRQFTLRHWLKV
Note: assay procedure not described here.

| SMILES | AC50 [1] [µM] | AC50 [2] [µM] | AC50 [3] [µM] | AC50 (Acetylcholinesterase) [µM] | AC50 (Thromboxane A2 receptor [4]) [µM] | AC50 (Histamine H3 receptor) [µM] | AC50 [5] [µM] | AC50 [6] [µM] | AC50 (Thromboxane A2 receptor [7]) [µM] | AC50 (Prothrombin) [µM] | AC50 [8] [µM] | AC50 [9] [µM] | AC50 [10] [µM] | AC50 [11] [µM] |
| --- | --- | --- | --- | --- | --- | --- | --- | --- | --- | --- | --- | --- | --- | --- |
| Cc1cc2c(cc1S(N)(=O)=O)S(=O)(=O)CCC2 | > 30 | > 30 | > 30 | > 30 | > 30 | > 30 | > 30 | > 30 | > 30 | > 30 | > 30 | > 30 | > 30 | > 30 |
| NC(=O)[C@@H]1CC[C@@H]2CN1C(=O)N2OS(=O)(=O)O [AVIBACTAM] | > 30 | > 30 | > 30 | > 30 | > 30 | > 30 | > 30 | > 30 | > 30 | > 30 | > 30 | > 30 | > 30 | > 30 |
| CC(O)(CS(=O)(=O)c1ccc(F)cc1)C(=O)Nc1ccc(C#N)c(C(F)(F)F)c1 (centres undefined) [BICALUTAMIDE] | > 30 | > 30 | > 30 | > 30 | > 10 | > 30 | > 30 | > 30 | > 3 | > 30 | > 30 | > 30 | > 30 | > 30 |
| CC(C)(C)NC(=O)N[C@H](C(=O)N1C[C@H]2[C@@H]([C@H]1C(=O)NC(CC1CCC1)C(=O)C(N)=O)C2(C)C)C(C)(C)C (some centres undefined) [BOCEPREVIR] | > 30 | > 30 | > 30 | > 30 | > 30 | > 30 | > 30 | > 30 | > 30 | > 30 | > 30 | > 30 | > 30 | > 30 |
| NC[C@H]1CC[C@H](C(=O)Oc2ccc(CCC(=O)O)cc2)CC1 [CETRAXATE] | > 30 | > 30 | > 30 | > 30 | > 30 | > 30 | > 30 | > 30 | > 30 | 4.35 | > 30 | > 30 | > 30 | > 30 |
| C=C1CC[C@H](O)C/C1=C/C=C1\CCC[C@]2(C)[C@@H]([C@H](C)CCCC(C)C)CC[C@@H]12 [CHOLECALCIFEROL] | > 30 | > 30 | > 30 | > 30 | > 30 | > 30 | > 3 | > 30 | 22.4 | > 30 | > 30 | > 30 | > 30 | > 30 |
